Laboratory results: ChEMBL document CHEMBL1275384, “Structure-activity relationships of benzimidazole-based selective inhibitors of the mitogen activated kinase-5 signaling pathway” (2010)

How the values were obtained:
SR = test: Cytotoxicity against human SR cells at 10 uM assessed as cell growth relative to control; type: functional; settings: read-out: Activity
SNB-19 = test: Cytotoxicity against human SNB19 cells at 10 uM assessed as cell growth relative to control; type: functional; settings: read-out: Activity
HCC 2998 = test: Cytotoxicity against human HCC2998 cells at 10 uM assessed as cell growth relative to control; type: functional; settings: read-out: Activity
BT-549 = test: Cytotoxicity against human BT549 cells at 10 uM assessed as cell growth relative to control; type: functional; settings: read-out: Activity
CCRF-CEM = test: Cytotoxicity against human CCRF-CEM cells at 10 uM assessed as cell growth relative to control; type: functional; settings: read-out: Activity
CAKI-1 = test: Cytotoxicity against human Caki1 cells at 10 uM assessed as cell growth relative to control; type: functional; settings: read-out: Activity
MOLT-4 = test: Cytotoxicity against human MOLT4 cells at 10 uM assessed as cell growth relative to control; type: functional; settings: read-out: Activity
SF-295 = test: Cytotoxicity against human SF295 cells at 10 uM assessed as cell growth relative to control; type: functional; settings: read-out: Activity
COLO 205 = test: Cytotoxicity against human COLO205 cells at 10 uM assessed as cell growth relative to control; type: functional; settings: read-out: Activity
TK-10 = test: Cytotoxicity against human TK10 cells at 10 uM assessed as cell growth relative to control; type: functional; settings: read-out: Activity
SN12C = test: Cytotoxicity against human SN12C cells at 10 uM assessed as cell growth relative to control; type: functional; settings: read-out: Activity
NCI-H226 = test: Cytotoxicity against human NCI-H226 cells at 10 uM assessed as cell growth relative to control; type: functional; settings: read-out: Activity
DU-145 = test: Cytotoxicity against human DU145 cells at 10 uM assessed as cell growth relative to control; type: functional; settings: read-out: Activity
NCI-H322M = test: Cytotoxicity against human NCI-H322M cells at 10 uM assessed as cell growth relative to control; type: functional; settings: read-out: Activity
MCF7 = test: Cytotoxicity against human MCF7 cells at 10 uM assessed as cell growth relative to control; type: functional; settings: read-out: Activity
NCI-H460 = test: Cytotoxicity against human NCI-H460 cells at 10 uM assessed as cell growth relative to control; type: functional; settings: read-out: Activity
IGROV-1 = test: Cytotoxicity against human IGROV1 cells at 10 uM assessed as cell growth relative to control; type: functional; settings: read-out: Activity
[1] = target: T1, Dual specificity mitogen-activated protein kinase kinase 5 (Homo sapiens) (UniProt Q13163); settings: HEK293, at 10 µM;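 note: MEK5 activity stimulated by EGF, read out as phospho-ERK5 on Western blot after 1 h treatment, expressed relative to control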
T1 sequence (whole entry): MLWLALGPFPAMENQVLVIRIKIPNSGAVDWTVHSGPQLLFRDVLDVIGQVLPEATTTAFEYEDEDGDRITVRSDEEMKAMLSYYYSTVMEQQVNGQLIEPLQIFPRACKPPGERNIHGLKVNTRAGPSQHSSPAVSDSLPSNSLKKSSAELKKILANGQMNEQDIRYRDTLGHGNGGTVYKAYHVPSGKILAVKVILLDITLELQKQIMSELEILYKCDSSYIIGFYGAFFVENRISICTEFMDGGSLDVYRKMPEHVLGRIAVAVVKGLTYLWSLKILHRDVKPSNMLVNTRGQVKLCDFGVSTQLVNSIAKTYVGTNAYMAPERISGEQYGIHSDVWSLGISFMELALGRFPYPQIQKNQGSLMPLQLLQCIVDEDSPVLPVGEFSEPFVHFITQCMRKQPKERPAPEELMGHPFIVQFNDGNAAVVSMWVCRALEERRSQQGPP
Description: Inhibition of EGF-induced MEK5 activity in HEK293 cells assessed as phosphorylated ERK5 level at 10 uM after 1 hr by Western blotting relative to control

RXF 393 = test: Cytotoxicity against human RXF393 cells at 10 uM assessed as cell growth relative to control; type: functional; settings: read-out: Activity
MDA-MB-435 = test: Cytotoxicity against human MDA-MB-435 cells at 10 uM assessed as cell growth relative to control; type: functional; settings: read-out: Activity
HCT-15 = test: Cytotoxicity against human HCT15 cells at 10 uM assessed as cell growth relative to control; type: functional; settings: read-out: Activity
MDA-MB-468 = test: Cytotoxicity against human MDA-MB-468 cells at 10 uM assessed as cell growth relative to control; type: functional; settings: read-out: Activity
UO-31 = test: Cytotoxicity against human UO31 cells at 10 uM assessed as cell growth relative to control; type: functional; settings: read-out: Activity
NCI/ADR-RES = test: Cytotoxicity against human NCI/ADR-RES cells at 10 uM assessed as cell growth relative to control; type: functional; settings: read-out: Activity
[2] = Cytotoxicity against human […] cells at 10 uM assessed as cell growth relative to control; type: functional; settings: read-out: Activity
HOP-62 = test: Cytotoxicity against human HOP62 cells at 10 uM assessed as cell growth relative to control; type: functional; settings: read-out: Activity
786-0 = test: Cytotoxicity against human 786-0 cells at 10 uM assessed as cell growth relative to control; type: functional; settings: read-out: Activity
NCI-H522 = test: Cytotoxicity against human NCI-H522 cells at 10 uM assessed as cell growth relative to control; type: functional; settings: read-out: Activity
EKVX = test: Cytotoxicity against human EKVX cells at 10 uM assessed as cell growth relative to control; type: functional; settings: read-out: Activity
OVCAR-4 = test: Cytotoxicity against human OVCAR4 cells at 10 uM assessed as cell growth relative to control; type: functional; settings: read-out: Activity
HT-29 = test: Cytotoxicity against human HT-29 cells at 10 uM assessed as cell growth relative to control; type: functional; settings: read-out: Activity
SF-268 = test: Cytotoxicity against human SF268 cells at 10 uM assessed as cell growth relative to control; type: functional; settings: read-out: Activity
A549 = test: Cytotoxicity against human A549 cells at 10 uM assessed as cell growth relative to control; type: functional; settings: read-out: Activity
OVCAR-8 = test: Cytotoxicity against human OVCAR8 cells at 10 uM assessed as cell growth relative to control; type: functional; settings: read-out: Activity
OVCAR-3 = test: Cytotoxicity against human OVCAR-3 cells at 10 uM assessed as cell growth relative to control; type: functional; settings: read-out: Activity
NCI-H23 = test: Cytotoxicity against human NCI-H23 cells at 10 uM assessed as cell growth relative to control; type: functional; settings: read-out: Activity
SK-OV-3 = test: Cytotoxicity against human SKOV3 cells at 10 uM assessed as cell growth relative to control; type: functional; settings: read-out: Activity
SK-MEL-28 = test: Cytotoxicity against human SK-MEL-28 cells at 10 uM assessed as cell growth relative to control; type: functional; settings: read-out: Activity
KM12 = test: Cytotoxicity against human KM12 cells at 10 uM assessed as cell growth relative to control; type: functional; settings: read-out: Activity
OVCAR-5 = test: Cytotoxicity against human OVCAR5 cells at 10 uM assessed as cell growth relative to control; type: functional; settings: read-out: Activity
ACHN = test: Cytotoxicity against human ACHN cells at 10 uM assessed as cell growth relative to control; type: functional; settings: read-out: Activity
SF-539 = test: Cytotoxicity against human SF539 cells at 10 uM assessed as cell growth relative to control; type: functional; settings: read-out: Activity
SNB-75 = test: Cytotoxicity against human SNB75 cells at 10 uM assessed as cell growth relative to control; type: functional; settings: read-out: Activity
SK-MEL-2 = test: Cytotoxicity against human SK-MEL-2 cells at 10 uM assessed as cell growth relative to control; type: functional; settings: read-out: Activity
HOP-92 = test: Cytotoxicity against human HOP92 cells at 10 uM assessed as cell growth relative to control; type: functional; settings: read-out: Activity

COc1cc(NCc2ccccc2)c2ncn(C(C)C)c2c1
growth at 10 µM (SR): 51.7% | growth at 10 µM (SNB-19): 90.7% | growth at 10 µM (HCC 2998): 105% | growth at 10 µM (BT-549): 55.6% | growth at 10 µM (CCRF-CEM): 93.9% | growth at 10 µM (CAKI-1): 97.2% | growth at 10 µM (MOLT-4): 78.7% | growth at 10 µM (SF-295): 138% | growth at 10 µM (COLO 205): 118% | growth at 10 µM (TK-10): 136% | growth at 10 µM (SN12C): 104% | growth at 10 µM (NCI-H226): 97.1% | growth at 10 µM (DU-145): 136% | growth at 10 µM (NCI-H322M): 115% | growth at 10 µM (MCF7): 5.8% | growth at 10 µM (NCI-H460): 107% | growth at 10 µM (IGROV-1): 92.4% | inhibition [1]: 85% | growth at 10 µM (RXF 393): 91.2% | growth at 10 µM (MDA-MB-435): 122% | growth at 10 µM (HCT-15): 97.9% | growth at 10 µM (MDA-MB-468): 36.5% | growth at 10 µM (UO-31): 83.2% | growth at 10 µM (NCI/ADR-RES): 96.7% | growth at 10 µM [2]: 71.5% | growth at 10 µM (HOP-62): 101% | growth at 10 µM (786-0): 96.5% | growth at 10 µM (NCI-H522): 87% | growth at 10 µM (EKVX): 93.9% | growth at 10 µM (OVCAR-4): 50.6% | growth at 10 µM (HT-29): 109% | growth at 10 µM (SF-268): 125% | growth at 10 µM (A549): 110% | growth at 10 µM (OVCAR-8): 98.7% | growth at 10 µM (OVCAR-3): 104% | growth at 10 µM (NCI-H23): 91.1% | growth at 10 µM (SK-OV-3): 110% | growth at 10 µM (SK-MEL-28): 125% | growth at 10 µM (KM12): 104% | growth at 10 µM (OVCAR-5): 97.2% | growth at 10 µM (ACHN): 106% | growth at 10 µM (SF-539): 96.2% | growth at 10 µM (SNB-75): 92.3% | growth at 10 µM (SK-MEL-2): 91.6% | growth at 10 µM (HOP-92): 64.5%

COCCCOc1cc(NCc2ccccc2)c2ncn(C(C)C)c2c1
growth at 10 µM (SR): 103% | growth at 10 µM (SNB-19): 90.3% | growth at 10 µM (HCC 2998): 91.7% | growth at 10 µM (BT-549): 90.1% | growth at 10 µM (CCRF-CEM): 86.8% | growth at 10 µM (CAKI-1): 81.3% | growth at 10 µM (MOLT-4): 88.2% | growth at 10 µM (SF-295): 97.4% | growth at 10 µM (COLO 205): 100% | growth at 10 µM (TK-10): 109% | growth at 10 µM (SN12C): 90.8% | growth at 10 µM (NCI-H226): 91.6% | growth at 10 µM (DU-145): 99.2% | growth at 10 µM (NCI-H322M): 104% | growth at 10 µM (MCF7): 93.2% | growth at 10 µM (NCI-H460): 85.2% | growth at 10 µM (IGROV-1): 90.1% | inhibition [1]: 51% | growth at 10 µM (RXF 393): 94.3% | growth at 10 µM (MDA-MB-435): 110% | growth at 10 µM (HCT-15): 110% | growth at 10 µM (MDA-MB-468): 104% | growth at 10 µM (UO-31): 79.9% | growth at 10 µM (NCI/ADR-RES): 85.3% | growth at 10 µM [2]: 89.2% | growth at 10 µM (HOP-62): 85.7% | growth at 10 µM (786-0): 95.7% | growth at 10 µM (NCI-H522): 127% | growth at 10 µM (EKVX): 95.4% | growth at 10 µM (OVCAR-4): 87.8% | growth at 10 µM (HT-29): 109% | growth at 10 µM (SF-268): 96.7% | growth at 10 µM (A549): 94% | growth at 10 µM (OVCAR-8): 99.3% | growth at 10 µM (OVCAR-3): 84.9% | growth at 10 µM (NCI-H23): 109% | growth at 10 µM (SK-OV-3): 101% | growth at 10 µM (SK-MEL-28): 115% | growth at 10 µM (KM12): 100% | growth at 10 µM (OVCAR-5): 91.5% | growth at 10 µM (ACHN): 95.3% | growth at 10 µM (SF-539): 93.5% | growth at 10 µM (SNB-75): 92% | growth at 10 µM (SK-MEL-2): 92.7% | growth at 10 µM (HOP-92): 90.9%
